Test results published in ChEMBL document CHEMBL5376006, “Discovery of a Hidden Pocket beneath the NES Groove by Novel Noncovalent CRM1 Inhibitors” (J Med Chem, 2023).
The source made the active and inactive calls. No cut-off for these calls is given here.

What was measured:
Exportin-1 [1] = target: T1, Exportin-1 (Homo sapiens, UniProt O14980); assay: Inhibition of CRM1 (unknown origin) binding to GST-tagged NES PKI at 100 uM incubated for 1.5 hrs by Coomassie brilliant blue staining based pull-down assay
T1 sequence (O14980 whole entry): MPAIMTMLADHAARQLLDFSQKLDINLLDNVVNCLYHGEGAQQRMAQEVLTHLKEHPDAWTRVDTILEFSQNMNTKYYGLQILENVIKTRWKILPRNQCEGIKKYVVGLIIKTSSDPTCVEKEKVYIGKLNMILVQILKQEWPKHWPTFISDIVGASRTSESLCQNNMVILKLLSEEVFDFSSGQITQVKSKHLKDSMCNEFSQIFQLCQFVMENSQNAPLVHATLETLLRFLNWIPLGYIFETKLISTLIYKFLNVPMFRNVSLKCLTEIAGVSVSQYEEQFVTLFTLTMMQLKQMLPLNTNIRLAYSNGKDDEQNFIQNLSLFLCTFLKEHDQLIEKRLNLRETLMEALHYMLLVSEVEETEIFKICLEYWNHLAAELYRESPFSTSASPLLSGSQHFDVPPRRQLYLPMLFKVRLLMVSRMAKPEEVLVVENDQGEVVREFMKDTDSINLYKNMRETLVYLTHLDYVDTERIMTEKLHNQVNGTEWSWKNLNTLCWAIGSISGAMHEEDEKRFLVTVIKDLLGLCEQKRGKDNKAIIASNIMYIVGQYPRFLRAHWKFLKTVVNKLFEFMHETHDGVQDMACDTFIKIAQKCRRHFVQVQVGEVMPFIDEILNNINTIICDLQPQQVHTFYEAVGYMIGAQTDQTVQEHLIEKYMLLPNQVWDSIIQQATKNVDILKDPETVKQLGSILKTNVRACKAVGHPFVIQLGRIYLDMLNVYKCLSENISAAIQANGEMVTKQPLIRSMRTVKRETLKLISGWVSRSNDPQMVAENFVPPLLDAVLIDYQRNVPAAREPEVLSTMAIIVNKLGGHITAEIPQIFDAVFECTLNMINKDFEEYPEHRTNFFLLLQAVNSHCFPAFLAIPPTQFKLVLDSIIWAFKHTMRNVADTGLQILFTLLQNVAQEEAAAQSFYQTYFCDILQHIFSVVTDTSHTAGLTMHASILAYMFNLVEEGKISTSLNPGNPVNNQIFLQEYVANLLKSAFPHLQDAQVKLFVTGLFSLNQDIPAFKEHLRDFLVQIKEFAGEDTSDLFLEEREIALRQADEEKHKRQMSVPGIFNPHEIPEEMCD

Exportin-1 [2] = target: T1, Exportin-1; assay: Inhibition of CRM1 (unknown origin) binding to GST-tagged NES PKI assessed as CRM1/NES band ratio incubated for 1.5 hrs by Coomassie brilliant blue staining based pull-down assay (reference value: 1.00); design: concentration or dose not given beside the values
Exportin-1 [3] = target: T1, Exportin-1; assay: Inhibition of GFP-fused CRM1 cargo nuclear export in human HeLa cells at 200 uM incubated for 4 hrs by confocal microscopic analysis; assay type: cell-based
Exportin-1 [4] = target: T1, Exportin-1; assay: Covalent inhibition of CRM1 (unknown origin) binding to GST-tagged NES PKI at 20 uM incubated for 2 hrs in presence of DTT by Coomassie brilliant blue staining based pull-down assay
[5] = Cytotoxicity against HEK293T cells assessed as inhibition of cell growth incubated for 72 hrs by SRB assay; assay type: toxicity, cell-based, HEK-293T; details: human
HeLa [6] = assay: Antiproliferative activity against human HeLa cells assessed as inhibition of cell growth incubated for 72 hrs by SRB assay; assay type: functional, cell-based
MOLT-4 = assay: Antiproliferative activity against human MOLT-4 cells assessed as inhibition of cell growth incubated for 72 hrs by CellTiter Glo assay; assay type: functional, cell-based; details: MOLT-4, 72 h, pooled result: one value given for 6 cell lines, strains, targets or settings
HeLa [7] = assay: Antiproliferative activity against human HeLa cells assessed as inhibition of cell growth at 20 uM incubated for 72 hrs by SRB assay; assay type: functional, cell-based
Exportin-1 [8] = target: T1, Exportin-1; assay: Inhibition of CRM1 (unknown origin) binding to GST-tagged NES PKI assessed as CRM1/NES band ratio at 20 uM incubated for 1.5 hrs by Coomassie brilliant blue staining based pull-down assay
Exportin-1 [9] = target: T1, Exportin-1; assay: Binding affinity to CRM1 (unknown origin) assessed as inhibition of CRM1 binding to IAF-conjugated NES PKI by measuring dissociation constant in the presence of RanGTP by competitive MST analysis
A2780 = assay: Antiproliferative activity against human A2780 cells assessed as inhibition of cell growth at 20 uM incubated for 72 hrs by SRB assay; assay type: functional, cell-based
MCF7 = assay: Antiproliferative activity against human MCF7 cells assessed as inhibition of cell growth at 20 uM incubated for 72 hrs by SRB assay; assay type: functional, cell-based
A549 [10] = assay: Inhibition of colony formation in human A549 cells at 20 uM incubated for 48 hrs by crystal violet staining based analysis; assay type: functional, cell-based
Exportin-1 [11] = target: T1, Exportin-1; assay: Inhibition of CRM1 cargo nuclear export in human MCF7 cells at 50 uM incubated for 4 hrs by confocal microscopic analysis; assay type: cell-based
A549 [12] = assay: Inhibition of colony formation in human A549 cells at 40 uM incubated for 48 hrs by crystal violet staining based analysis relative to control; assay type: functional
A549 [13] = assay: Induction of apoptosis in human A549 cells assessed as activation of phosphorylated JNK at 50 uM incubated for 18 hrs by Western blot analysis; assay type: functional, cell-based
HepG2 = assay: Antiproliferative activity against human HepG2 cells assessed as inhibition of cell growth at 20 uM incubated for 72 hrs by SRB assay; assay type: functional, cell-based
PANC-1 = assay: Antiproliferative activity against human PANC-1 cells assessed as inhibition of cell growth at 20 uM incubated for 72 hrs by SRB assay; assay type: functional, cell-based
A549 [14] = assay: Induction of apoptosis in human A549 cells assessed as caspase-3 cleavage at 50 uM incubated for 18 hrs by Western blot analysis; assay type: functional, cell-based
OVCAR-8 = assay: Antiproliferative activity against human OVCAR-8 cells assessed as inhibition of cell growth at 20 uM incubated for 72 hrs by SRB assay; assay type: functional, cell-based
A549 [15] = assay: Antiproliferative activity against human A549 cells assessed as inhibition of cell growth at 20 uM incubated for 72 hrs by SRB assay; assay type: functional, cell-based
A549 [16] = assay: Induction of apoptosis in human A549 cells assessed as PARP-1 cleavage at 50 uM incubated for 18 hrs by Western blot analysis; assay type: functional, cell-based
Exportin-1 [17] = target: T1, Exportin-1; assay: Binding affinity to CRM1 in human HeLa assessed as thermal stabilization at 20 uM incubated at 60 to 84 degreeC for 3 mins by CETSA based Western blot analysis; assay type: cell-based
A549 [18] = assay: Induction of apoptosis in human A549 cells at 50 uM incubated for 18 hrs by Annexin V-FITC/PI staining based flow cytometric analysis; assay type: functional, cell-based
Exportin-1 [19] = target: T1, Exportin-1; assay: Inhibition of CRM1 cargo nuclear export in human A549 cells at 50 uM incubated for 4 hrs by confocal microscopic analysis; assay type: cell-based
Ishikawa = assay: Antiproliferative activity against human Ishikawa cells assessed as inhibition of cell growth at 20 uM incubated for 72 hrs by SRB assay; assay type: functional, cell-based
HuCCT-1 = assay: Antiproliferative activity against human HuCCT-1 cells assessed as inhibition of cell growth at 20 uM incubated for 72 hrs by SRB assay; assay type: functional, cell-based
SW480 = assay: Antiproliferative activity against human SW480 cells assessed as inhibition of cell growth at 20 uM incubated for 72 hrs by SRB assay; assay type: functional, cell-based
MDA-MB-453 = assay: Antiproliferative activity against human MDA-MB-453 cells assessed as inhibition of cell growth at 20 uM incubated for 72 hrs by SRB assay; assay type: functional, cell-based
[20] = system: Exportin-1 (Homo sapiens), O14980 [C528S]; assay: Inhibition of human CRM1 C528S mutant nuclear export transfected in human MCF7 cells at 50 uM incubated for 4 hrs by confocal microscopic analysis; assay type: cell-based
Chain of Exportin-1 (Homo sapiens), O14980 [C528S] (O14980 whole entry C528S): as the sequence (O14980 whole entry) above, with C528S counted along it

Exportin-1 [21] = target: T1, Exportin-1; assay: Inhibition of CRM1 cargo nuclear export in digitonin-permeabilized human HeLa cells at 50 uM incubated for 4 hrs by confocal microscopic analysis; assay type: cell-based
[22] = Solubility of the compound in water; assay type: physicochemical
[23] = Toxicity in mouse assessed as body weight loss at 100 mg/kg, ip administered for 2 weeks; assay type: organism-based; details: in vivo, 336 h
[24] = Toxicity in mouse at 100 mg/kg, ip administered for 2 weeks; assay type: organism-based; details: in vivo, 336 h
Exportin-1 [25] = target: T1, Exportin-1; assay: Inhibition of CRM1 (unknown origin) binding to GST-tagged NES PKI at 100 uM incubated for 2 hrs in presence of DTT by Coomassie brilliant blue staining based pull-down assay

## COC(=O)c1ccc(N2CCN(c3cc(C(F)(F)F)ccc3Cl)CC2)c(NC(=O)c2ccc(Br)cc2)c1
Exportin-1 [1]
  inhibition: inactive

## O=C(O)c1ccc(N2CCN(c3cccc(Cl)c3)CC2)c(NS(=O)(=O)c2cccc(F)c2)c1
Exportin-1 [2]
  Ratio: 0.43
Exportin-1 [3]
  inhibition: inactive

## O=C(/C=C\n1cnc(-c2cc(C(F)(F)F)cc(C(F)(F)F)c2)n1)NNc1cnccn1 [SELINEXOR]
Exportin-1 [4]
  inhibition: inactive
[5]
  IC50 at 72 h: 0.73 µM
HeLa [6]
  IC50: 0.43 µM
MOLT-4
  IC50: 0.034 µM

## Cc1ccc(Cl)cc1N1CCN(c2ccc(C(=O)O)cc2NC(=O)c2ccc(F)cc2)CC1
Exportin-1 [2]
  Ratio: 0.18
Exportin-1 [3]
  inhibition: inactive

## O=C(O)c1ccc(N2CCN(c3cc(C(F)(F)F)ccc3Cl)CC2)c(NC(=O)c2ccc(Br)cc2)c1
HeLa [7]
  Activity: Active
Exportin-1 [8]
  Ratio: 0.15

## O=C(O)c1ccc(N2CCN(c3cc(C(F)(F)F)ccc3C(F)(F)F)CC2)c(NC(=O)c2ccc(Cl)cc2)c1
Exportin-1 [9]
  Kd: 3.6 µM
A2780
  Activity: Active
MCF7
  Activity: Active
A549 [10]
  inhibition: Active
Exportin-1 [11]
  inhibition: Active
[5]
  IC50 at 72 h: 39 µM
A549 [12]
  inhibition at 40 µM: 100%
A549 [13]
  Activity: Active
HepG2
  Activity: Active
HeLa [6]
  IC50: 14.6 µM
PANC-1
  Activity: Active
A549 [14]
  Activity: Active
OVCAR-8
  Activity: Active
A549 [15]
  Activity: Active
A549 [16]
  Activity: Active
Exportin-1 [17]
  Activity: Active
HeLa [7]
  Activity: Active
A549 [18]
  Activity: Active
Exportin-1 [19]
  inhibition: Active
Ishikawa
  Activity: Active
HuCCT-1
  Activity: Active
SW480
  Activity: Active
MDA-MB-453
  Activity: Active
[20]
  inhibition: inactive
Exportin-1 [21]
  inhibition: Active
[22]
  solubility: < 0.14 µg/mL
[23]
  Activity: Non-Toxic
[24]
  Activity: Non-Toxic

## COC(=O)c1ccc(N2CCN(c3cc(C(F)(F)F)ccc3C(F)(F)F)CC2)c(NC(=O)c2ccc(Br)cc2)c1
Exportin-1 [11]
  inhibition: inactive
Exportin-1 [1]
  inhibition: inactive

## Cc1ccc(C(F)(F)F)cc1N1CCN(c2ccc(C(=O)O)cc2NC(=O)c2ccc(Cl)cc2)CC1
HeLa [7]
  Activity: Active
Exportin-1 [8]
  Ratio: 0.2

## Cc1ccc(C)c(N2CCN(c3ccc(C(=O)O)cc3NC(=O)c3ccc(Cl)cc3)CC2)c1
Exportin-1 [9]
  Kd: 12 µM
Exportin-1 [25]
  inhibition: Active
Exportin-1 [2]
  Ratio: 0.02
Exportin-1 [1]
  inhibition: Active
Exportin-1 [3]
  inhibition: inactive

## O=C(O)c1ccc(N2CCN(c3cccc(C(F)(F)F)c3)CC2)c(NC(=O)c2ccc(F)cc2)c1
Exportin-1 [2]
  Ratio: 0.28
Exportin-1 [1]
  inhibition: Active
Exportin-1 [3]
  inhibition: inactive

## Cc1ccc(Cl)cc1N1CCN(c2ccc(C(=O)O)cc2NC(=O)c2ccc(Br)cc2)CC1
HeLa [7]
  Activity: Active
Exportin-1 [8]
  Ratio: 0.24

## COC(=O)c1ccc(N2CCN(c3cc(C(F)(F)F)ccc3C(F)(F)F)CC2)c(NC(=O)c2ccc(Cl)cc2)c1
Exportin-1 [11]
  inhibition: inactive
Exportin-1 [1]
  inhibition: inactive
